Source: patent US20240116862A1, “SULFUR-CONTAINING LIPIDS” (THE UNIVERSITY OF BRITISH COLUMBIA, priority 2021, published 2024)

Assays:
[1] = system: HepG2 cells; assay: In vitro analysis of luciferase expression using LNP-mRNA systems; type: cell-based; conditions: LNP-mRNA (firefly luciferase) at 0.125, 0.25, 0.5 and 1 μg/mL, 24 hours post treatment, versus KC2 LNP
Protocol: To assess LNP-mRNA efficacy in vitro, HepG2 cells were seeded at 8,000 cells/well in 96-well plates and cultured in DMEM supplemented with 10% FBS. LNP systems entrapping luciferase mRNA were added at various concentrations and luciferase expression was analyzed 24 hours post-treatment using the Steady-Glo Luciferase kit (Promega, Madison, WI).
The in vitro gene expression efficacy of LNP systems entrapping mRNA encoding for firefly luciferase was assessed. HepG2 cells were treated at different doses (0.125, 0.25, 0.5 and 1 μg/mL) using the above LNP-mRNA systems. Luciferase expression was analyzed 24 hours post treatment. Ionizable cationic lipid used was either KC2 (DLin-KC2-DMA) or compound 13 (MF019; see Example 1). In each case, the RLU was higher for compound 13 (MF019) than for KC2.

[2] = system: Factor VII; assay: In vivo analysis of Factor VII (FVII) silencing using LNP-siRNA systems; conditions: 0.3 mg/kg LNP-siFVII intravenous, mice, 24 h, FIG. 6
Protocol: FVII knockdown study were performed as previously described.^3 In brief, LNP-siRNA were administered intravenously into WT mice (Charles River Laboratories, Wilmington, MA). Animals were euthanized after 24 h, blood was collected, serum was separated from whole blood using Microtainer Serum Separator tubes (Becton Dickinson, Franklin Lakes, NJ), and the residual serum FVII levels were determined. All procedures were approved by the Animal Care Committee at the University of British Columbia and were performed in accordance with guidelines established by the Canadian Council on Animal Care.
The graph depicts residual Factor VII following intravenous administration of various doses of the LNP-siFVII (see Materials and Methods above).

[3] = Physicochemical characteristics of LNPs comprising mRNA and sulfur lipid (dynamic light scattering, Ribogreen entrapment)
Protocol: (§1) LNP-mRNA systems were prepared as previously described (Kulkarni, J. A. et al. ACS Nano 12, 4787-4795 (2018); and Kulkarni, J. A. et al. Nanoscale 11, 9023-9031 (2019), each of which is incorporated herein by reference). Briefly, lipid components (ionizable cationic lipid, cholesterol, DSPC, and PEG-lipid) at appropriate ratios were dissolved in ethanol to a concentration of 10 mM total lipid. Luciferase encoding mRNA was dissolved in 25 mM sodium acetate pH 4 buffer to achieve an amine-to-phosphate (N/P) ratio of 6. The two solutions were mixed through a T-junction mixer at a total flow rate of 20 mL/min, and a flow rate ratio of 3:1 v/v (corresponding to 15:5 mL/min aqueous:organic phase). The resulting suspension was subsequently dialyzed against PBS pH 7.4. siRNAs were dissolved in 25 mM sodium acetate pH 4 buffer to achieve an amine-to-phosphate (N/P) ratio of 3. The two solutions were mixed through a T-junction mixer at a total flow rate of 20 mL/min, and a flow rate ratio of 3:1 v/v (corresponding to 15:5 mL/min aqueous:organic phase). The resulting suspension was subsequently dialyzed against PBS pH 7.4.
(§2) The hydrodynamic diameter and size distribution of LNP-mRNA and LNP-siRNA systems were analyzed by dynamic light scattering using a Malvern Zetasizer Nano ZS. Data presented as number-weighted average size. Lipid concentrations were measured using the Cholesterol E Total-Cholesterol assay (Wako Diagnostics, Richmond, VA). RNA concentration and entrapment were measured using the Quant-iT Ribogreen RNA assay as described elsewhere (Kulkarni, J. A. et al. ACS Nano 12, 4787-4795 (2018); and Kulkarni, J. A. et al. Nanoscale 11, 9023-9031 (2019)).
LNPs were prepared comprising ionizable cationic sulfur-containing lipid/DSPC/cholesterol/PEG-lipid at molar ratios of 50/10/38.5/1.5 and mRNA (at N/P ratio of 6) as described in the Materials and Methods. The size, PDI and entrapment percentage were determined as set out in the Materials and Methods and the results are shown in Table 2 below. The data are based on n≥3 experiments and values reported are means±SD. […]

[4] = Physicochemical characteristics of lipid nanoparticle (LNP) entrapping siRNA (dynamic light scattering, Ribogreen entrapment, apparent pKa); conditions: for Size: number-weighted average, mean of n≥3; for Entrapment: siRNA entrapment, LNP sulfur lipid/DSPC/cholesterol/PEG-lipid 50/10/38.5/1.5, N/P 3
Protocol: as §1, §2
LNPs were prepared composed of ionizable cationic sulfur-containing lipid/DSPC/cholesterol/PEG-lipid at molar ratios of 50/10/38.5/1.5 and siRNA (at N/P ratio of 3) as described in the above Methods and Materials. The data are based on n≥3 experiments and values reported are means±SD.
Compound 13 (MF019; see Example 1) produced siRNA formulations having desirable physicochemical characteristics as shown in Table 3 below. The polydispersity index (PDI) of the resulting nanoparticles was <0.1, with an average LNP size ˜45 nm.

[5] = LNP sulfur lipid/DSPC/cholesterol/PEG-lipid 50/10/38.5/1.5, siRNA, N/P 3

PDI ([3]; LNP sulfur lipid/DSPC/cholesterol/PEG-lipid 50/10/38.5/1.5, mRNA, N/P 6): 0.054 | Size ([3]; LNP sulfur lipid/DSPC/cholesterol/PEG-lipid 50/10/38.5/1.5, mRNA, N/P 6, number-weighted average, mean of n≥3): 79 nm | Entrapment ([3]; mRNA entrapment, LNP sulfur lipid/DSPC/cholesterol/PEG-lipid 50/10/38.5/1.5, N/P 6): >93% | PDI [4, 5]: 0.028 | pKa [4, 5]: 6.41 | Size [4, 5]: 43 nm | Size ([4]; LNP sulfur lipid/DSPC/cholesterol/PEG-lipid 50/10/38.5/1.5, siRNA, N/P 3, listed as Compound 13): ~45 nm | polydispersity index (PDI) ([4]; LNP with siRNA, N/P 3): < 0.1 | nucleic acid entrapment ([4]; formulated in a lipid nanoparticle, nucleic acid not specified): above 93% | Entrapment [4]: >93% | Entrapment ([4]; listed as Compound 13): > 93%
SMILES: CCCCCSCSCCCCCCCCC(CCCCCCCCSCSCCCCC)OC(=O)CCCN(C)C [compound 13, 6,8,26,28-tetrathiatritriacontan-17-yl 4-(dimethylamino)butanoate]
Luciferase expression (RLU) compared with KC2 [1]: higher | Factor VII knock down (residual serum FVII) [2]: almost complete knock down
